From PubChem BioAssay AID1963862 (Molecular Pharmacology Branch, DTP, NCI, 2024)

Tested on: KRAS patient-derived spheroids with HUVEC/MSC, viability
Test: Anticancer human tumor 941728-121-R-J1-PDC patient-derived lung adenocarcinoma cell line growth inhibition [KRAS2]
Conditions: for IC50: curve of first compound; for viability, T/C: stronger effect = lower value; active = viability on the fitted dose curve at most 10% of control; inactive = the rest
Outline: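 Combination screen of spheroid viability in tumor-cell co-cultures with endothelial (HUVEC) and mesenchymal stem cell stroma. Each agent was tested in half-log dilutions, topping at clinical Cmax or at 10 microM without a known Cmax.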

[1] = second compound 0.1 µM, first compound 0.0316 µM
[2] = second compound 0.1 µM, first compound 0.1 µM
[3] = second compound 0.1 µM, first compound 0.316 µM
[4] = second compound 0.1 µM, first compound 1 µM
[5] = second compound 0.1 µM, first compound 3.16 µM
[6] = second compound 0.1 µM, first compound 10 µM
[7] = second compound 0.316 µM, first compound 0.0316 µM
[8] = second compound 0.316 µM, first compound 0.1 µM
[9] = second compound 0.316 µM, first compound 0.316 µM
[10] = second compound 0.316 µM, first compound 1 µM
[11] = second compound 0.316 µM, first compound 3.16 µM
[12] = second compound 0.316 µM, first compound 10 µM
[13] = second compound 1 µM, first compound 0.0316 µM
[14] = second compound 1 µM, first compound 0.1 µM
[15] = second compound 1 µM, first compound 0.316 µM
[16] = second compound 1 µM, first compound 1 µM
[17] = second compound 1 µM, first compound 3.16 µM
[18] = second compound 1 µM, first compound 10 µM
[19] = second compound 3.16 µM, first compound 0.0316 µM
[20] = second compound 3.16 µM, first compound 0.1 µM
[21] = second compound 3.16 µM, first compound 0.316 µM
[22] = second compound 3.16 µM, first compound 1 µM
[23] = second compound 3.16 µM, first compound 3.16 µM
[24] = second compound 3.16 µM, first compound 10 µM
[25] = second compound 10 µM, first compound 0.0316 µM
[26] = second compound 10 µM, first compound 0.1 µM
[27] = second compound 10 µM, first compound 0.316 µM
[28] = second compound 10 µM, first compound 1 µM
[29] = second compound 10 µM, first compound 3.16 µM
[30] = second compound 10 µM, first compound 10 µM
[31] = second compound 0.1 µM, first compound 0.000316 µM
[32] = second compound 0.1 µM, first compound 0.001 µM
[33] = second compound 0.1 µM, first compound 0.00316 µM
[34] = second compound 0.1 µM, first compound 0.01 µM
[35] = second compound 0.316 µM, first compound 0.000316 µM
[36] = second compound 0.316 µM, first compound 0.001 µM
[37] = second compound 0.316 µM, first compound 0.00316 µM
[38] = second compound 0.316 µM, first compound 0.01 µM
[39] = second compound 1 µM, first compound 0.000316 µM
[40] = second compound 1 µM, first compound 0.001 µM
[41] = second compound 1 µM, first compound 0.00316 µM
[42] = second compound 1 µM, first compound 0.01 µM
[43] = second compound 3.16 µM, first compound 0.000316 µM
[44] = second compound 3.16 µM, first compound 0.001 µM
[45] = second compound 3.16 µM, first compound 0.00316 µM
[46] = second compound 3.16 µM, first compound 0.01 µM
[47] = second compound 10 µM, first compound 0.000316 µM
[48] = second compound 10 µM, first compound 0.001 µM
[49] = second compound 10 µM, first compound 0.00316 µM
[50] = second compound 10 µM, first compound 0.01 µM
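Also: spheroids exposed to agents for seven days before readout.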

Cn1nccc1Nc1nccc(-c2cc3c(s2)C(C)(C)N(CCN2CCOCC2)C3=O)n1 + CC1OCC2(CCN(c3cnc(Sc4ccnc(N)c4Cl)c(N)n3)CC2)C1N
47.7 nM: IC50 (second compound 0.1 µM)
inactive: viability, T/C [1] 53.7% | viability, T/C [2] 43.2% | viability, T/C [3] 38.1% | viability, T/C [4] 36% | viability, T/C [5] 29.2% | viability, T/C [6] 35.1% | viability, T/C [7] 45.1% | viability, T/C [8] 41.5% | viability, T/C [9] 34.3% | viability, T/C [10] 34.9% | viability, T/C [11] 25.8% | viability, T/C [12] 25% | viability, T/C [13] 38.2% | viability, T/C [14] 39.2% | viability, T/C [15] 31.3% | viability, T/C [16] 30% | viability, T/C [17] 23.8% | viability, T/C [18] 18.9% | viability, T/C [19] 33.5% | viability, T/C [20] 30.4% | viability, T/C [21] 30.9% | viability, T/C [22] 24.4% | viability, T/C [23] 16.3% | viability, T/C [24] 18.3% | viability, T/C [25] 29% | viability, T/C [26] 29.5% | viability, T/C [27] 21.5% | viability, T/C [28] 15.6% | viability, T/C [29] 10.8% | viability, T/C [30] 13.1%
< 31.6 nM: IC50 (second compound 0.316 µM) | IC50 (second compound 1 µM) | IC50 (second compound 3.16 µM) | IC50 (second compound 10 µM)

CC(=O)Nc1cccc(-n2c(=O)n(C3CC3)c(=O)c3c(Nc4ccc(I)cc4F)n(C)c(=O)c(C)c32)c1 + CNCc1ccccc1-c1csc(C(C)Nc2nc(C)nc3cc(OC)c(OC)cc23)c1
active: viability, T/C [13] 7.52% | viability, T/C (second compound 3.16 µM, first compound 0.0001 µM) 0.3% | viability, T/C [43] 0.14% | viability, T/C [44] 0.76% | viability, T/C [45] 0.17% | viability, T/C [46] 0.16% | viability, T/C [19] 0.25% | viability, T/C (second compound 10 µM, first compound 0.0001 µM) 0.16% | viability, T/C [47] 0.16% | viability, T/C [48] 0.17% | viability, T/C [49] 0.15% | viability, T/C [50] 0.14% | viability, T/C [25] 0.26%
< 0.1 nM: IC50 (second compound 0.316 µM) | IC50 (second compound 1 µM) | IC50 (second compound 3.16 µM) | IC50 (second compound 10 µM)
0.119 nM: IC50 (second compound 0.1 µM)
inactive: viability, T/C (second compound 0.1 µM, first compound 0.0001 µM) 51.3% | viability, T/C [31] 46.8% | viability, T/C [32] 38.1% | viability, T/C [33] 37.7% | viability, T/C [34] 35.7% | viability, T/C [1] 27.9% | viability, T/C (second compound 0.316 µM, first compound 0.0001 µM) 44.4% | viability, T/C [35] 44.1% | viability, T/C [36] 34.2% | viability, T/C [37] 31.8% | viability, T/C [38] 30.5% | viability, T/C [7] 21.9% | viability, T/C (second compound 1 µM, first compound 0.0001 µM) 35.3% | viability, T/C [39] 33% | viability, T/C [40] 26.8% | viability, T/C [41] 23% | viability, T/C [42] 14%

CC(=O)OC12COC1CC(O)C1(C)C(=O)C(O)C3=C(C)C(OC(=O)C(O)C(NC(=O)OC(C)(C)C)c4ccccc4)CC(O)(C(OC(=O)c4ccccc4)C21)C3(C)C (stereo not given) + CNCc1ccccc1-c1csc(C(C)Nc2nc(C)nc3cc(OC)c(OC)cc23)c1
active: viability, T/C [19] 0.11% | viability, T/C [20] 0.09% | viability, T/C [21] 0.11% | viability, T/C [22] 0.1% | viability, T/C [23] 31.5% | viability, T/C [50] 0.14% | viability, T/C [25] 0.09% | viability, T/C [26] 0.1% | viability, T/C [27] 0.13% | viability, T/C [28] 28.4% | viability, T/C [29] 0.21%
< 10 nM: IC50 (second compound 0.1 µM) | IC50 (second compound 0.316 µM) | IC50 (second compound 1 µM) | IC50 (second compound 3.16 µM) | IC50 (second compound 10 µM)
inactive: viability, T/C [34] 35.7% | viability, T/C [1] 37.4% | viability, T/C [2] 32% | viability, T/C [3] 38.3% | viability, T/C [4] 34.3% | viability, T/C [5] 41.8% | viability, T/C [38] 28% | viability, T/C [7] 28% | viability, T/C [8] 27% | viability, T/C [9] 25.9% | viability, T/C [10] 29.3% | viability, T/C [11] 30.2% | viability, T/C [42] 29.2% | viability, T/C [13] 34.3% | viability, T/C [14] 34.5% | viability, T/C [15] 36% | viability, T/C [16] 38% | viability, T/C [17] 33% | viability, T/C [46] 18.7%

CN(C)C/C=C/C(=O)Nc1cc2c(Nc3ccc(F)c(Cl)c3)ncnc2cc1O[C@H]1CCOC1 + CNCc1ccccc1-c1csc(C(C)Nc2nc(C)nc3cc(OC)c(OC)cc23)c1
< 0.316 nM: IC50 (second compound 0.1 µM) | IC50 (second compound 0.316 µM) | IC50 (second compound 1 µM) | IC50 (second compound 3.16 µM) | IC50 (second compound 10 µM)
active: viability, T/C [43] 0.61% | viability, T/C [44] 0.24% | viability, T/C [45] 0.15% | viability, T/C [46] 0.14% | viability, T/C [19] 0.13% | viability, T/C [20] 0.18% | viability, T/C [47] 0.05% | viability, T/C [48] 0.04% | viability, T/C [49] 0.04% | viability, T/C [50] 0.08% | viability, T/C [25] 0.04% | viability, T/C [26] 0.32%
inactive: viability, T/C [31] 44% | viability, T/C [32] 45.9% | viability, T/C [33] 36.2% | viability, T/C [34] 34.6% | viability, T/C [1] 31.6% | viability, T/C [2] 35.6% | viability, T/C [35] 32.6% | viability, T/C [36] 24.5% | viability, T/C [37] 28.5% | viability, T/C [38] 23.8% | viability, T/C [7] 25.6% | viability, T/C [8] 29.9% | viability, T/C [39] 20.5% | viability, T/C [40] 19.6% | viability, T/C [41] 18.5% | viability, T/C [42] 19.6% | viability, T/C [13] 20.6% | viability, T/C [14] 19.4%

COC(=O)c1ccc2c(C(=Nc3ccc(N(C)C(=O)CN4CCN(C)CC4)cc3)c3ccccc3)c(O)[nH]c2c1 + CNCc1ccccc1-c1csc(C(C)Nc2nc(C)nc3cc(OC)c(OC)cc23)c1
active: viability, T/C [18] 5.39% | viability, T/C [19] 0.42% | viability, T/C [20] 0.43% | viability, T/C [21] 0.22% | viability, T/C [22] 0.73% | viability, T/C [23] 0.79% | viability, T/C [24] 0.62% | viability, T/C [25] 0.47% | viability, T/C [26] 0.1% | viability, T/C [27] 0.08% | viability, T/C [28] 0.1% | viability, T/C [29] 0.11% | viability, T/C [30] 0.15%
1740 nM: IC50 (second compound 0.1 µM)
< 31.6 nM: IC50 (second compound 0.316 µM) | IC50 (second compound 1 µM) | IC50 (second compound 3.16 µM) | IC50 (second compound 10 µM)
inactive: viability, T/C [1] 59.9% | viability, T/C [2] 49.5% | viability, T/C [3] 47.1% | viability, T/C [4] 63.4% | viability, T/C [5] 42.4% | viability, T/C [6] 35.8% | viability, T/C [7] 46.4% | viability, T/C [8] 44.1% | viability, T/C [9] 41.5% | viability, T/C [10] 35% | viability, T/C [11] 9.64% | viability, T/C [12] 20.3% | viability, T/C [13] 22.6% | viability, T/C [14] 24.5% | viability, T/C [15] 19.5% | viability, T/C [16] 25.6% | viability, T/C [17] 3.56%

O=C(c1cc(Cc2n[nH]c(=O)c3ccccc23)ccc1F)N1CCN(C(=O)C2CC2)CC1 + CNCc1ccccc1-c1csc(C(C)Nc2nc(C)nc3cc(OC)c(OC)cc23)c1
active: viability, T/C [19] 0.61% | viability, T/C [20] 1.87% | viability, T/C [21] 0.81% | viability, T/C [22] 0.22% | viability, T/C [23] 2.29% | viability, T/C [24] 0.22% | viability, T/C [25] 0.42% | viability, T/C [26] 0.09% | viability, T/C [27] 0.09% | viability, T/C [28] 0.09% | viability, T/C [29] 0.2% | viability, T/C [30] 0.14%
inactive: viability, T/C [1] 59% | viability, T/C [2] 65.2% | viability, T/C [3] 53.3% | viability, T/C [4] 54.6% | viability, T/C [5] 65.6% | viability, T/C [6] 67.8% | viability, T/C [7] 47.1% | viability, T/C [8] 45.5% | viability, T/C [9] 52.7% | viability, T/C [10] 55.1% | viability, T/C [11] 51.4% | viability, T/C [12] 67% | viability, T/C [13] 40.2% | viability, T/C [14] 48% | viability, T/C [15] 47.3% | viability, T/C [16] 51.7% | viability, T/C [17] 49.8% | viability, T/C [18] 58.5%
< 31.6 nM: IC50 (second compound 0.316 µM) | IC50 (second compound 1 µM) | IC50 (second compound 3.16 µM) | IC50 (second compound 10 µM)
> 10000 nM: IC50 (second compound 0.1 µM)
